Values quoted from earlier work in patent publication US20070104788A1, “Once-daily administration of central nervous system drugs” (priority 2005, published 2007).
Where two headings read alike, the source gives them in different places.

Conditions: for half life: background statement

Row | SMILES | half life [h] | Half-Life Elimination (metabolite of tramadol) [h] | Half-Life Elimination (parent drug) [h] | Half-Life Elimination (after a meal) | Half-Life Elimination (fasting)
1 | COc1cccc([C@@]2(O)CCCC[C@H]2CN(C)C)c1 (racemic) [tramadol] | 6.3 | 7 | 5 to 6 | – | –
2 | CN(C)C[C@H]1CCCC[C@]1(O)c1cccc(O)c1 [Ml] | 7.4 | – | – | – | –
3 | Cc1cc(C)cc(OCC2CNC(=O)O2)c1 (stereo not shown) [metaxolone] | – | – | – | 2.4 ± 1.2 (after a meal) hours | 9.2 ± 4.8 (fasting) hours
4 | COc1ccc2c3c1O[C@H]1C(=O)CC[C@@]4(O)[C@@H](C2)N(C)CC[C@]314 [oxycodone] | – | – | 0.4 | – | –
